Results published in the NIST ThermoML archive (doi:10.1016/j.jct.2005.05.020).
Numbers after ± are expanded uncertainties.

Assay: xn = mol fraction of the nth substance listed
Conditions: 101 kPa, Liquid

`CCCCC` [pentane] + CCCCCCC showed a mass density (273.14 K, x1 = 0.2019) of 691.57 ± 0.63 kg/m3, a mass density (273.15 K, x1 = 0.1014) of 696.24 ± 0.62 kg/m3 and a mass density (273.15 K, x1 = 0.3011) of 686.91 ± 0.64 kg/m3. It also gave a mass density (273.15 K, x1 = 0.4001) of 682.43 ± 0.65 kg/m3, a mass density (273.15 K, x1 = 0.4997) of 677.18 ± 0.66 kg/m3 and a mass density (273.15 K, x1 = 0.5999) of 671.16 ± 0.68 kg/m3. The mass density (273.15 K, x1 = 0.698) was 665.42 ± 0.69 kg/m3, the mass density (273.15 K, x1 = 0.7991) was 659.05 ± 0.71 kg/m3 and the mass density (273.15 K, x1 = 0.8992) was 652.37 ± 0.73 kg/m3. The mass density (278.15 K, x1 = 0.1014) was 692.07 ± 0.62 kg/m3, the mass density (278.15 K, x1 = 0.2019) was 687.35 ± 0.63 kg/m3 and the mass density (278.15 K, x1 = 0.3011) was 682.65 ± 0.64 kg/m3. For the same compound, the mass density (278.15 K, x1 = 0.4001) was 678.13 ± 0.65 kg/m3, the mass density (278.15 K, x1 = 0.4997) was 672.82 ± 0.67 kg/m3 and the mass density (278.15 K, x1 = 0.5999) was 666.73 ± 0.68 kg/m3. For the same compound, the mass density (278.15 K, x1 = 0.698) was 660.92 ± 0.7 kg/m3, the mass density (278.15 K, x1 = 0.7991) was 654.47 ± 0.72 kg/m3 and the mass density (278.15 K, x1 = 0.8992) was 647.72 ± 0.74 kg/m3. The mass density (283.15 K, x1 = 0.1014) was 687.87 ± 0.63 kg/m3, the mass density (283.15 K, x1 = 0.2019) was 683.1 ± 0.64 kg/m3 and the mass density (283.15 K, x1 = 0.3011) was 678.35 ± 0.65 kg/m3. It also gave a mass density (283.15 K, x1 = 0.4001) of 673.78 ± 0.66 kg/m3, a mass density (283.15 K, x1 = 0.4997) of 668.42 ± 0.67 kg/m3 and a mass density (283.15 K, x1 = 0.5999) of 662.25 ± 0.69 kg/m3. It also gave a mass density (283.15 K, x1 = 0.698) of 656.37 ± 0.71 kg/m3, a mass density (283.15 K, x1 = 0.7991) of 649.85 ± 0.73 kg/m3 and a mass density (283.15 K, x1 = 0.8992) of 643.01 ± 0.75 kg/m3. It also gave a mass density (288.15 K, x1 = 0.1014) of 683.65 ± 0.64 kg/m3, a mass density (288.15 K, x1 = 0.2019) of 678.83 ± 0.65 kg/m3 and a mass density (288.15 K, x1 = 0.3011) of 674.03 ± 0.66 kg/m3. It also gave a mass density (288.15 K, x1 = 0.4001) of 669.41 ± 0.67 kg/m3, a mass density (288.15 K, x1 = 0.4997) of 663.99 ± 0.68 kg/m3 and a mass density (288.15 K, x1 = 0.5999) of 657.74 ± 0.7 kg/m3. For the same compound, the mass density (288.15 K, x1 = 0.698) was 651.79 ± 0.71 kg/m3, the mass density (288.15 K, x1 = 0.7991) was 645.18 ± 0.74 kg/m3 and the mass density (288.15 K, x1 = 0.8992) was 638.26 ± 0.76 kg/m3. It also gave a mass density (293.15 K, x1 = 0.1014) of 679.4 ± 0.64 kg/m3, a mass density (293.15 K, x1 = 0.2019) of 674.53 ± 0.65 kg/m3 and a mass density (293.15 K, x1 = 0.3011) of 669.67 ± 0.66 kg/m3. For the same compound, the mass density (293.15 K, x1 = 0.4001) was 665.01 ± 0.67 kg/m3, the mass density (293.15 K, x1 = 0.4997) was 659.51 ± 0.69 kg/m3 and the mass density (293.15 K, x1 = 0.5999) was 653.19 ± 0.7 kg/m3. It also gave a mass density (293.15 K, x1 = 0.698) of 647.17 ± 0.72 kg/m3, a mass density (293.15 K, x1 = 0.7991) of 640.48 ± 0.74 kg/m3 and a mass density (293.15 K, x1 = 0.8992) of 633.46 ± 0.76 kg/m3. For the same compound, the mass density (298.15 K, x1 = 0.1014) was 675.12 ± 0.65 kg/m3, the mass density (298.15 K, x1 = 0.2019) was 670.21 ± 0.66 kg/m3 and the mass density (298.15 K, x1 = 0.3011) was 665.29 ± 0.67 kg/m3. For the same compound, the mass density (298.15 K, x1 = 0.4001) was 660.56 ± 0.68 kg/m3, the mass density (298.15 K, x1 = 0.4997) was 655.01 ± 0.69 kg/m3 and the mass density (298.15 K, x1 = 0.5999) was 648.6 ± 0.71 kg/m3. For the same compound, the mass density (298.15 K, x1 = 0.698) was 642.5 ± 0.73 kg/m3, the mass density (298.15 K, x1 = 0.7991) was 635.73 ± 0.75 kg/m3 and the mass density (298.15 K, x1 = 0.8992) was 628.61 ± 0.77 kg/m3. For the same compound, the mass density (303.15 K, x1 = 0.1014) was 670.82 ± 0.65 kg/m3, the mass density (303.15 K, x1 = 0.2019) was 665.85 ± 0.66 kg/m3 and the mass density (303.15 K, x1 = 0.3011) was 660.88 ± 0.67 kg/m3. The mass density (303.15 K, x1 = 0.4001) was 656.08 ± 0.69 kg/m3, the mass density (303.15 K, x1 = 0.4997) was 650.46 ± 0.7 kg/m3 and the mass density (303.15 K, x1 = 0.5999) was 643.97 ± 0.72 kg/m3. It also gave a mass density (303.15 K, x1 = 0.698) of 637.79 ± 0.74 kg/m3, a mass density (303.15 K, x1 = 0.7991) of 630.93 ± 0.76 kg/m3 and a mass density (303.15 K, x1 = 0.8992) of 623.7 ± 0.78 kg/m3. For the same compound, the mass density (308.15 K, x1 = 0.1014) was 666.49 ± 0.66 kg/m3, the mass density (308.15 K, x1 = 0.2019) was 661.46 ± 0.67 kg/m3 and the mass density (308.15 K, x1 = 0.3011) was 656.43 ± 0.68 kg/m3. It also gave a mass density (308.15 K, x1 = 0.4001) of 651.57 ± 0.69 kg/m3, a mass density (308.15 K, x1 = 0.4997) of 645.86 ± 0.71 kg/m3 and a mass density (308.15 K, x1 = 0.5999) of 639.3 ± 0.73 kg/m3. The mass density (308.15 K, x1 = 0.698) was 633.03 ± 0.74 kg/m3, the mass density (308.15 K, x1 = 0.7991) was 626.07 ± 0.76 kg/m3 and the mass density (313.15 K, x1 = 0.1014) was 662.08 ± 0.67 kg/m3. The mass density (313.15 K, x1 = 0.2019) was 657.04 ± 0.68 kg/m3, the mass density (313.15 K, x1 = 0.3011) was 651.94 ± 0.69 kg/m3 and the mass density (313.15 K, x1 = 0.4001) was 647 ± 0.7 kg/m3. For the same compound, the mass density (313.15 K, x1 = 0.4997) was 641.22 ± 0.71 kg/m3, the mass density (313.15 K, x1 = 0.5999) was 634.58 ± 0.73 kg/m3 and the mass density (313.15 K, x1 = 0.698) was 628.22 ± 0.75 kg/m3. The mass density (313.15 K, x1 = 0.7991) was 621.16 ± 0.77 kg/m3, the mass density (318.15 K, x1 = 0.1014) was 657.69 ± 0.67 kg/m3 and the mass density (318.15 K, x1 = 0.2019) was 652.58 ± 0.68 kg/m3. The mass density (318.15 K, x1 = 0.3011) was 647.42 ± 0.69 kg/m3, the mass density (318.15 K, x1 = 0.4001) was 642.39 ± 0.71 kg/m3 and the mass density (318.15 K, x1 = 0.4997) was 636.53 ± 0.72 kg/m3. It also gave a mass density (318.15 K, x1 = 0.698) of 623.36 ± 0.76 kg/m3, a mass density (318.15 K, x1 = 0.7991) of 616.18 ± 0.78 kg/m3 and a mass density (323.15 K, x1 = 0.1014) of 653.26 ± 0.68 kg/m3. For the same compound, the mass density (323.15 K, x1 = 0.2019) was 648.09 ± 0.69 kg/m3, the mass density (323.15 K, x1 = 0.3011) was 642.84 ± 0.7 kg/m3 and the mass density (323.15 K, x1 = 0.4001) was 637.74 ± 0.71 kg/m3. The mass density (323.15 K, x1 = 0.4997) was 631.79 ± 0.73 kg/m3, the mass density (323.15 K, x1 = 0.698) was 618.43 ± 0.76 kg/m3 and the mass density (323.15 K, x1 = 0.7991) was 611.14 ± 0.79 kg/m3. For the same compound, the mass density (328.15 K, x1 = 0.1014) was 648.78 ± 0.69 kg/m3, the mass density (328.15 K, x1 = 0.2019) was 643.55 ± 0.7 kg/m3 and the mass density (328.15 K, x1 = 0.3011) was 638.23 ± 0.71 kg/m3. For the same compound, the mass density (328.15 K, x1 = 0.4001) was 633.03 ± 0.72 kg/m3, the mass density (328.15 K, x1 = 0.4997) was 626.99 ± 0.74 kg/m3 and the mass density (333.15 K, x1 = 0.1014) was 644.24 ± 0.69 kg/m3. The mass density (333.15 K, x1 = 0.3011) was 633.57 ± 0.72 kg/m3, the mass density (333.15 K, x1 = 0.4001) was 628.26 ± 0.73 kg/m3 and the mass density (333.15 K, x1 = 0.4997) was 622.13 ± 0.74 kg/m3. It also gave a mass density (338.15 K, x1 = 0.1014) of 639.67 ± 0.7 kg/m3, a mass density (338.15 K, x1 = 0.4001) of 623.48 ± 0.74 kg/m3 and a mass density (338.15 K, x1 = 0.4997) of 617.2 ± 0.75 kg/m3. For the same compound, the mass density (343.15 K, x1 = 0.1014) was 635.01 ± 0.71 kg/m3 and the mass density (343.15 K, x1 = 0.4001) was 618.87 ± 0.74 kg/m3.
